What was measured:
[1] = DRUGMATRIX: Leukotriene, BLT (LTB4) radioligand binding (ligand: [3H]LTB4); type: cell membranes, Membrane; details: u-937, Not Active = under 50% inhibition at 10 µM
[2] = molecular target: 5-hydroxytryptamine receptor 1B (Rattus norvegicus, UniProt P28564); type: cell membranes, Wistar, Cerebral cortex, Membrane; note: in other assays of this panel Not Active means under 50% inhibition at 10 µM
Leukotriene C4 synthase = molecular target: T1, Leukotriene C4 synthase (Cavia porcellus, UniProt A6XA80); assay: biochemical; type: tissue-based, Lung;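 note: enzyme inhibition assay of leukotriene C4 synthase, using LTA4 as the substrate; in other assays of this panel Not Active means under 50% inhibition at 10 µM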
T1 sequence (A6XA80 whole entry): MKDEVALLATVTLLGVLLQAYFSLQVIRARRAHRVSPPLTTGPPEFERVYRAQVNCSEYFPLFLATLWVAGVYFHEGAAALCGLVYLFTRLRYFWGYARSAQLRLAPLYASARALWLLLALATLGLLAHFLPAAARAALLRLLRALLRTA

[3] = molecular target: Delta-type opioid receptor (Homo sapiens, UniProt P41143); type: cell membranes, HEK293, Membrane; note: in other assays of this panel Not Active means under 50% inhibition at 10 µM
Acetylcholinesterase = Acetylcholinesterase (Homo sapiens, UniProt P22303); assay: DRUGMATRIX: Acetylcholinesterase enzyme inhibition (substrate: acetylthiocholine); type: cell-based, HEK293; details: hek293; Not Active = under 50% inhibition at 10 µM
[4] = molecular target: T2, Neuropeptide Y receptor type 2 (Homo sapiens, UniProt P49146); type: cell membranes, Membrane; details: kan-ts; note: in other assays of this panel Not Active means under 50% inhibition at 10 µM
T2 sequence (P49146 whole entry): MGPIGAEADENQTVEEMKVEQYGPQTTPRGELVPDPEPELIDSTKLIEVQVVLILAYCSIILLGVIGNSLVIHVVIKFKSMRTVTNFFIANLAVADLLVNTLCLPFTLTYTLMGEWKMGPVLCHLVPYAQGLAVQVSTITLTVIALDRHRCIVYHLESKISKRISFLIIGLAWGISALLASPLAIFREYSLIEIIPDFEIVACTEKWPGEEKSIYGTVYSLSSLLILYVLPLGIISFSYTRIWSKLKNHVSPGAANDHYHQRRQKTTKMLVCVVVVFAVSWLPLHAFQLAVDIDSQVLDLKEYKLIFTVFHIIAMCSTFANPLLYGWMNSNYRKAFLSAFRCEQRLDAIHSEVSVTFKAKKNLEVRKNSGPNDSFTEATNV

Sequence of Delta-type opioid receptor (P41143 whole entry): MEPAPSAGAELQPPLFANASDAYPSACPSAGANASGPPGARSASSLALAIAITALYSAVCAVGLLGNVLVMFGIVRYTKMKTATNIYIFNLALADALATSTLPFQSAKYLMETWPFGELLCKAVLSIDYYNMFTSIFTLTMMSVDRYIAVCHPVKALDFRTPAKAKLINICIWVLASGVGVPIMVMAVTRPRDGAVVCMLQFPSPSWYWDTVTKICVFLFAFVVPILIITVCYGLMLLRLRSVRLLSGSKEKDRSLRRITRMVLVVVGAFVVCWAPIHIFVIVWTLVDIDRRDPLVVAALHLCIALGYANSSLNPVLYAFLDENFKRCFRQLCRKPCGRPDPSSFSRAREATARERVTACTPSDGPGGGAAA
Sequence of 5-hydroxytryptamine receptor 1B (P28564 whole entry): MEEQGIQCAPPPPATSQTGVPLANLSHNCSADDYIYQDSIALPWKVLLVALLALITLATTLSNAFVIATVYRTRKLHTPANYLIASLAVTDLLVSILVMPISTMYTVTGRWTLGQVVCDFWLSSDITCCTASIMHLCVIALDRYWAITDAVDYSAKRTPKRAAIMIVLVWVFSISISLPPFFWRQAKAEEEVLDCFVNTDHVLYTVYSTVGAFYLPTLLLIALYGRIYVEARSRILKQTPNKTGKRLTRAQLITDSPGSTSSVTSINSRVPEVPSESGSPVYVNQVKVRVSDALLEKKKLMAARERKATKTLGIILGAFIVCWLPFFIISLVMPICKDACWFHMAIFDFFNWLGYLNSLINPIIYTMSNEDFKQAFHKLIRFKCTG
Sequence of Acetylcholinesterase (P22303 whole entry): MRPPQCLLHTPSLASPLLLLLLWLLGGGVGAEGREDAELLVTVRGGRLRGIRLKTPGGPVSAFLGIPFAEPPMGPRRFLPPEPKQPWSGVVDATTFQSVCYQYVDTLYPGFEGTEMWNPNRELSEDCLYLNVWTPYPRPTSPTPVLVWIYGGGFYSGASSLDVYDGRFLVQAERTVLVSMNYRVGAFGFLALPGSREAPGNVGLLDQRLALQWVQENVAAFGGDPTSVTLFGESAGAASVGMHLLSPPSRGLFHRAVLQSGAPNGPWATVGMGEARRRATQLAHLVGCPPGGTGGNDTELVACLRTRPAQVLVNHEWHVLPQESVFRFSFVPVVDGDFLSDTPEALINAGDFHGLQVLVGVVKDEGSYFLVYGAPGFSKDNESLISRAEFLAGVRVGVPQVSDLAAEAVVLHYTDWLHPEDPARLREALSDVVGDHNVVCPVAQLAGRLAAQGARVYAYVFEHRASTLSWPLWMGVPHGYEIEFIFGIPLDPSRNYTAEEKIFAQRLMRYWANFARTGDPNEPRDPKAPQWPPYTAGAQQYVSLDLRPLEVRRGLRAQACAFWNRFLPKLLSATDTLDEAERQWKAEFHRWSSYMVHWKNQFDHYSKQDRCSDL

| Molecule | IC50 [1] | Ki [1] | IC50 [2] | IC50 (Leukotriene C4 synthase) | IC50 ([3]; hek293) | IC50 (Acetylcholinesterase) | IC50 [4] | IC50 ([1]; read-out: IC50) [µM] | Ki ([1]; read-out: Ki) [µM] | Ki [2] | Ki (Leukotriene C4 synthase) | Ki ([3]; hek293) | Ki (Acetylcholinesterase) | Ki [4] | IC50 ([3]; read-out: IC50) [µM] | Ki ([3]; read-out: Ki) [µM] |
| --- | --- | --- | --- | --- | --- | --- | --- | --- | --- | --- | --- | --- | --- | --- | --- | --- |
| OC[C@H]1O[C@@H]2O[C@H]3[C@H](O)[C@@H](O)[C@@H](O[C@H]4[C@H](O)[C@@H](O)[C@@H](O[C@H]5[C@H](O)[C@@H](O)[C@@H](O[C@H]6[C@H](O)[C@@H](O)[C@@H](O[C@H]7[C@H](O)[C@@H](O)[C@@H](O[C@H]1[C@H](O)[C@H]2O)O[C@@H]7CO)O[C@@H]6CO)O[C@@H]5CO)O[C@@H]4CO)O[C@@H]3CO [ALFADEX] | Not Active | Not Active | Not Active | Not Active | Not Active | Not Active | Not Active |  |  |  |  |  |  |  |  |  |
| c1ccc2sc(SSc3nc4ccccc4s3)nc2c1 [BENZOTHIAZYL DISULFIDE] |  |  | Not Active | Not Active | Not Active | Not Active | Not Active | 5.1 | 1.3 |  |  |  |  |  |  |  |
| CNC[C@H](O)c1ccc(O)c(O)c1 [EPINEPHRINE] | Not Active | Not Active | Not Active | Not Active | Not Active | Not Active | Not Active |  |  |  |  |  |  |  |  |  |
| POVIDONE | Not Active | Not Active | Not Active | Not Active | Not Active | Not Active | Not Active |  |  | Not Active | Not Active | Not Active | Not Active | Not Active |  |  |
| C=CCO [ALLYL ALCOHOL] | Not Active | Not Active | Not Active | Not Active | Not Active | Not Active | Not Active |  |  |  |  |  |  |  |  |  |
| CHROMIC CHLORIDE | Not Active | Not Active | Not Active | Not Active | Not Active | Not Active | Not Active |  |  | Not Active | Not Active | Not Active | Not Active | Not Active |  |  |
| Clc1cc(Cl)c(OCC#CI)cc1Cl [HALOPROGIN] | Not Active | Not Active | Not Active | Not Active | Not Active | Not Active | Not Active |  |  |  |  |  |  |  |  |  |
| C[N+](C)(C)CCOP(=O)([O-])OC[C@H](O)CO | Not Active | Not Active | Not Active | Not Active | Not Active | Not Active | Not Active |  |  |  |  |  |  |  |  |  |
| COc1ccc(C[C@H](N)C(=O)N[C@H]2[C@@H](O)[C@H](n3cnc4c(N(C)C)ncnc43)O[C@@H]2CO)cc1 [PUROMYCIN] | Not Active | Not Active | Not Active | Not Active | Not Active | Not Active | Not Active |  |  |  |  |  |  |  |  |  |
| ClC1=C(Cl)[C@]2(Cl)[C@@H]3[C@@H]4C[C@@H]([C@H]5O[C@@H]45)[C@@H]3[C@@]1(Cl)C2(Cl)Cl [DIELDRIN] | Not Active | Not Active | Not Active | Not Active | Not Active | Not Active | Not Active |  |  |  |  |  |  |  |  |  |
| CARBOXYMETHYLCELLULOSE | Not Active | Not Active | Not Active | Not Active | Not Active | Not Active | Not Active |  |  | Not Active | Not Active | Not Active | Not Active | Not Active |  |  |
| CC(CN1c2ccccc2Sc2ccccc21)N(C)C (centres undefined) [PROMETHAZINE] | Not Active | Not Active | Not Active | Not Active | Not Active | Not Active | Not Active |  |  |  |  |  |  |  |  |  |
| NCC(CC(=O)O)c1ccc(Cl)cc1 (centres undefined) [BACLOFEN] | Not Active | Not Active | Not Active | Not Active | Not Active | Not Active | Not Active |  |  |  |  |  |  |  |  |  |
| CN(CCOc1ccc(C[C@H](Nc2ccccc2C(=O)c2ccccc2)C(=O)O)cc1)c1ccccn1 | Not Active | Not Active | Not Active | Not Active |  | Not Active | Not Active |  |  |  |  |  |  |  | 3.21 | 1.13 |

From ChEMBL document CHEMBL1909046, “DrugMatrix in vitro pharmacology data”
